Reference: patent US9732119B2, “Immunomodulators” (BRISTOL-MYERS SQUIBB COMPANY, priority 2014, dated 2017)
Positions of bridges follow the written chain, without caps; N, C: chain ends. Non-standard residues stand in square brackets, D forms with d. Residues, ends and D or L forms follow the SMILES beside them. Trp(1-CH2COOH) = N[C@@H](Cc1cn(CC(=O)O)c2ccccc12)C(=O)O; Phe(4-Cl) = N[C@@H](Cc1ccc(Cl)cc1)C(=O)O; Hyp = O=C(O)[C@@H]1C[C@@H](O)CN1; Aad = N[C@@H](CCCC(=O)O)C(=O)O; NMeNle = CCCC[C@H](NC)C(=O)O; dOrn = NCCC[C@@H](N)C(=O)O; Pip = O=C(O)[C@@H]1CCCCN1; Orn = NCCC[C@H](N)C(=O)O; Dab = NCC[C@H](N)C(=O)O; Dap = NC[C@H](N)C(=O)O

Biological target: T1, PD-1-Ig binding to PD-L1-TVMV-His (PD-L1-His) (Homo sapiens, UniProt Q9NZQ7)
T1 construct: hPDL1(19-239)-TVMV-His; made in house; host or cells: HEK293T cells
Test: PD-1/PD-L1 Homogenous Time-Resolved Fluorescence (HTRF) binding assay
Conditions: PD-1-Ig (20 nM) / PD-L1-His (10 nM); range classes
Summary of the method: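 In dPBS with 0.1% BSA and 0.05% Tween-20, inhibitors were preincubated 15 min with 10 nM PD-L1-His before 20 nM PD-1-Ig was added for another 15 min. Binding read by time-resolved FRET between Eu-cryptate anti-Ig (1 nM) and APC anti-His (20 nM).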

T1 sequence (Q9NZQ7 with tags, fused parts or gaps): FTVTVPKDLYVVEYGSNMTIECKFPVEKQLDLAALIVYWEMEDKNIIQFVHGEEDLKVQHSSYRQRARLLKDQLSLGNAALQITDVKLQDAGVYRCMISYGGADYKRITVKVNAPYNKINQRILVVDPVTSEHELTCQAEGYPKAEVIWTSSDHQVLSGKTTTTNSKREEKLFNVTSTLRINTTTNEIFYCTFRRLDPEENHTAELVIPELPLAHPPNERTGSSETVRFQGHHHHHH

Row | SMILES | IC50
1 | CCCC[C@H]1C(=O)N(C)[C@@H](CCCC)C(=O)N[C@@H](CC(C)C)C(=O)NCCC[C@@H](N)C(=O)N[C@@H](Cc2ccc(OC)cc2)C(=O)N2CCCC[C@H]2C(=O)N[C@@H](CC(N)=O)C(=O)N2CCC[C@H]2C(=O)N[C@@H](CN)C(=O)N[C@@H](CCC(=O)O)C(=O)N2C[C@H](O)C[C@H]2C(=O)N[C@@H](Cc2c[nH]c3ccccc23)C(=O)N[C@@H](CCN)C(=O)N[C@@H](Cc2cn(CC(=O)O)c3ccccc23)C(=O)N1C [Example 10569] (H-[dOrn]Y(Me)[Pip]NP[Dap]E[Hyp]W[Dab][Trp(1-CH2COOH)][NMeNle][NMeNle]L; lactam 1-C) | 1 to 9.9 nM
2 | CCCC[C@H]1C(=O)N(C)[C@@H](CCCC)C(=O)N[C@@H](CC(C)C)C(=O)N[C@H](C(N)=O)COCC(=O)N[C@@H](Cc2ccc(F)cc2)C(=O)N2CCCC[C@H]2C(=O)N[C@@H](CC(N)=O)C(=O)N2CCC[C@H]2C(=O)N[C@@H](CN)C(=O)N[C@@H](CC(C)C)C(=O)N2C[C@H](O)C[C@H]2C(=O)N[C@@H](Cc2c[nH]c3ccccc23)C(=O)N[C@@H](CCN)C(=O)N[C@@H](Cc2cn(CC(=O)O)c3ccccc23)C(=O)N1C [Example 10529] | 10 to 99 nM
3 | CCCC[C@H]1C(=O)N(C)[C@@H](CCCC)C(=O)N[C@@H](CC(C)C)C(=O)N[C@H](C(=O)NCC(N)=O)CNCC(=O)N[C@@H](Cc2ccc(F)cc2)C(=O)N(C)[C@@H](C)C(=O)N[C@@H](CC(=O)O)C(=O)N2CCC[C@H]2C(=O)N[C@@H](CCC(N)=O)C(=O)N[C@@H](CCC(N)=O)C(=O)N2C[C@H](O)C[C@H]2C(=O)N[C@@H](Cc2c[nH]c3ccccc23)C(=O)N[C@@H](CC(N)=O)C(=O)N[C@@H](Cc2cn(CC(=O)O)c3ccccc23)C(=O)N1C [Example 9017] | 10 to 99 nM
4 | CCCC[C@H]1C(=O)N(C)[C@@H](CCCC)C(=O)N[C@@H](CC(C)C)C(=O)N[C@H](C(=O)NCC(N)=O)CNCC(=O)N[C@@H](Cc2ccc(F)cc2)C(=O)N(C)[C@@H](C)C(=O)N[C@@H](CC(N)=O)C(=O)N2CCC[C@H]2C(=O)N[C@@H](CCC(N)=O)C(=O)N[C@@H](CC(=O)O)C(=O)N2C[C@H](O)C[C@H]2C(=O)N[C@@H](Cc2c[nH]c3ccccc23)C(=O)N[C@@H](CC(N)=O)C(=O)N[C@@H](Cc2cn(CC(=O)O)c3ccccc23)C(=O)N1C [Example 9010] | 10 to 99 nM
5 | CCCC[C@H]1C(=O)N(C)[C@@H](CCCC)C(=O)N[C@@H](CC(C)C)C(=O)NCCC[C@H](N)C(=O)N[C@@H](Cc2ccc(O)cc2)C(=O)N2CCCC[C@H]2C(=O)N[C@@H](CC(N)=O)C(=O)N2CCC[C@H]2C(=O)N[C@@H](CN)C(=O)N[C@@H](CC(C)C)C(=O)N2C[C@H](O)C[C@H]2C(=O)N[C@@H](Cc2c[nH]c3ccccc23)C(=O)N[C@@H](CCN)C(=O)N[C@@H](Cc2cn(CC(=O)O)c3ccccc23)C(=O)N1C [Example 10517] (H-[Orn]Y[Pip]NP[Dap]L[Hyp]W[Dab][Trp(1-CH2COOH)][NMeNle][NMeNle]L; lactam 1-C) | 10 to 99 nM
6 | CCCC[C@H]1C(=O)N(C)[C@@H](CCCC)C(=O)N[C@@H](CC(C)C)C(=O)NCCC[C@@H](N)C(=O)N[C@@H](Cc2ccc(O)cc2)C(=O)N2CCCC[C@H]2C(=O)N[C@@H](CC(N)=O)C(=O)N2CCC[C@H]2C(=O)N[C@@H](CN)C(=O)N[C@@H](CC(C)C)C(=O)N2C[C@H](O)C[C@H]2C(=O)N[C@@H](Cc2c[nH]c3ccccc23)C(=O)N[C@@H](CCN)C(=O)N[C@@H](Cc2cn(CC(=O)O)c3ccccc23)C(=O)N1C [Example 10558] (H-[dOrn]Y[Pip]NP[Dap]L[Hyp]W[Dab][Trp(1-CH2COOH)][NMeNle][NMeNle]L; lactam 1-C) | 10 to 99 nM
7 | CCCC[C@H]1C(=O)N(C)[C@@H](CCCC)C(=O)N[C@@H](CC(C)C)C(=O)N[C@H](C(=O)NCC(N)=O)CNCC(=O)N[C@@H](Cc2ccc(OC)cc2)C(=O)N2CCCC[C@H]2C(=O)N[C@@H](CC(N)=O)C(=O)N2CCC[C@H]2C(=O)N[C@@H](CN)C(=O)N[C@@H](CC(C)C)C(=O)N2C[C@H](O)C[C@H]2C(=O)N[C@@H](Cc2c[nH]c3ccccc23)C(=O)N[C@@H](CCN)C(=O)N[C@@H](Cc2cn(CC(=O)O)c3ccccc23)C(=O)N1C [Example 1040] | 1 to 9.9 nM
8 | CCCC[C@H]1C(=O)N(C)[C@@H](CCCC)C(=O)N[C@@H](CC(C)C)C(=O)N[C@H](C(N)=O)CNCC(=O)N[C@@H](Cc2ccc(F)cc2)C(=O)N2CCCC[C@H]2C(=O)N[C@@H](CC(=O)O)C(=O)N2CCC[C@H]2C(=O)N[C@@H](CCC(N)=O)C(=O)N[C@@H](CC(=O)O)C(=O)N2C[C@H](O)C[C@H]2C(=O)N[C@@H](Cc2c[nH]c3ccccc23)C(=O)N[C@@H](CC(N)=O)C(=O)N[C@@H](Cc2cn(CC(=O)O)c3ccccc23)C(=O)N1C [Example 9039] | 1 to 9.9 nM
9 | CCCC[C@H]1C(=O)N(C)[C@@H](CCCC)C(=O)NC(CC(C)C)C(=O)N[C@H](C(=O)NCC(N)=O)CNCC(=O)N[C@@H](Cc2ccc(O)cc2)C(=O)N(C)[C@@H](C)C(=O)N[C@@H](CC(N)=O)C(=O)N2CCC[C@H]2C(=O)N[C@@H](CN)C(=O)N[C@@H](CC(C)C)C(=O)N2C[C@H](O)C[C@H]2C(=O)N[C@@H](Cc2c[nH]c3ccccc23)C(=O)N[C@@H](CCCCN)C(=O)N[C@@H](Cc2cn(CC(=O)O)c3ccccc23)C(=O)N1C (some centres unmarked) [Example 1032] | 1 to 9.9 nM
10 | CCCC[C@H]1C(=O)N(C)[C@@H](CCCC)C(=O)N[C@@H](CC(C)C)C(=O)N[C@H](C(=O)NCC(N)=O)CNCC(=O)N[C@@H](Cc2ccc(O)cc2)C(=O)N(C)[C@@H](C)C(=O)N[C@@H](CC(N)=O)C(=O)N2CCC[C@H]2C(=O)N[C@@H](Cc2cnc[nH]2)C(=O)N[C@@H](CCC(N)=O)C(=O)N2C[C@H](O)C[C@H]2C(=O)N[C@@H](Cc2c[nH]c3ccccc23)C(=O)N[C@@H](CO)C(=O)N[C@@H](Cc2cn(CC(=O)O)c3ccccc23)C(=O)N1C [Example 10008] | 1 to 9.9 nM
11 | CCCC[C@H]1C(=O)N(C)[C@@H](CCCC)C(=O)N[C@@H](CCC(=O)O)C(=O)N[C@H](C(N)=O)CNCC(=O)N[C@@H](Cc2ccc(F)cc2)C(=O)N2CCCC[C@H]2C(=O)N[C@@H](CC(N)=O)C(=O)N2CCC[C@H]2C(=O)N[C@@H](Cc2c[nH]cn2)C(=O)N[C@@H](CCC(N)=O)C(=O)N2C[C@H](O)C[C@H]2C(=O)N[C@@H](Cc2c[nH]c3ccccc23)C(=O)N[C@@H](C)C(=O)N[C@@H](Cc2cn(CC(=O)O)c3ccccc23)C(=O)N1C [Example 9059] | 1 to 9.9 nM
12 | CCCC[C@H]1C(=O)N(C)[C@@H](CCCC)C(=O)N[C@@H](CCC(=O)O)C(=O)N[C@H](C(=O)NCC(N)=O)CNCC(=O)N[C@@H](Cc2ccc(F)cc2)C(=O)N(C)[C@@H](C)C(=O)N[C@@H](CC(N)=O)C(=O)N2CCC[C@H]2C(=O)N[C@@H](CCC(N)=O)C(=O)N[C@@H](CC(=O)O)C(=O)N2C[C@H](O)C[C@H]2C(=O)N[C@@H](Cc2c[nH]c3ccccc23)C(=O)N[C@@H](CC(N)=O)C(=O)N[C@@H](Cc2cn(CC(=O)O)c3ccccc23)C(=O)N1C [Example 9023] | 10 to 99 nM
13 | CCCC[C@H]1C(=O)N(C)[C@@H](CCCC)C(=O)N[C@@H](CC(C)C)C(=O)N[C@H](C(N)=O)CNCC(=O)N[C@@H](Cc2ccc(F)cc2)C(=O)N2CCCC[C@H]2C(=O)N[C@@H](CC(N)=O)C(=O)N2CCC[C@H]2C(=O)N[C@@H](CCC(N)=O)C(=O)N[C@@H](CC(=O)O)C(=O)N2C[C@H](O)C[C@H]2C(=O)N[C@@H](Cc2c[nH]c3ccccc23)C(=O)N[C@@H](CC(N)=O)C(=O)N[C@@H](Cc2cn(CC(=O)O)c3ccccc23)C(=O)N1C [Example 9031] | 1 to 9.9 nM
14 | CCCC[C@H]1C(=O)N(C)[C@@H](CCCC)C(=O)N[C@@H](CCC(=O)O)C(=O)N[C@H](C(N)=O)CNCC(=O)N[C@@H](Cc2ccc(O)cc2)C(=O)N2CCCC[C@H]2C(=O)N[C@@H](CC(N)=O)C(=O)N2CCC[C@H]2C(=O)N[C@@H](CCC(N)=O)C(=O)N[C@@H](CCC(N)=O)C(=O)N2C[C@H](O)C[C@H]2C(=O)N[C@@H](Cc2c[nH]c3ccccc23)C(=O)N[C@@H](CC(N)=O)C(=O)N[C@@H](Cc2cn(CC(=O)O)c3ccccc23)C(=O)N1C [Example 9045] | 1 to 9.9 nM
15 | CCCC[C@H]1C(=O)N(C)[C@@H](CCCC)C(=O)N[C@@H](CC(C)C)C(=O)NCCC[C@@H](N)C(=O)N[C@@H](Cc2ccc(Cl)cc2)C(=O)N2CCCC[C@H]2C(=O)N[C@@H](CC(N)=O)C(=O)N2CCC[C@H]2C(=O)N[C@@H](CN)C(=O)N[C@@H](CCC(=O)O)C(=O)N2C[C@H](O)C[C@H]2C(=O)N[C@@H](Cc2c[nH]c3ccccc23)C(=O)N[C@@H](CCN)C(=O)N[C@@H](Cc2cn(CC(=O)O)c3ccccc23)C(=O)N1C [Example 10571] (H-[dOrn][Phe(4-Cl)][Pip]NP[Dap]E[Hyp]W[Dab][Trp(1-CH2COOH)][NMeNle][NMeNle]L; lactam 1-C) | 1 to 9.9 nM
16 | CCCC[C@H]1C(=O)N(C)[C@@H](CCCC)C(=O)N[C@@H](CC(C)C)C(=O)N[C@H](C(=O)NCC(N)=O)CNCC(=O)N[C@@H](Cc2ccc(O)cc2)C(=O)N(C)[C@@H](C)C(=O)N[C@@H](CC(=O)O)C(=O)N2CCC[C@H]2C(=O)N[C@@H](CCC(N)=O)C(=O)N[C@@H](CC(C)C)C(=O)N2C[C@H](O)C[C@H]2C(=O)N[C@@H](Cc2c[nH]c3ccccc23)C(=O)N[C@@H](CC(N)=O)C(=O)N[C@@H](Cc2cn(CC(=O)O)c3ccccc23)C(=O)N1C [Example 9012] | 10 to 99 nM
17 | CCCC[C@H]1C(=O)N(C)[C@@H](CCCC)C(=O)N[C@@H](CC(C)C)C(=O)N[C@H](C(N)=O)CCCC(=O)N[C@@H](Cc2ccc(Cl)cc2)C(=O)N2CCCC[C@H]2C(=O)N[C@@H](CC(=O)O)C(=O)N2CCC[C@H]2C(=O)N[C@@H](CN)C(=O)N[C@@H](CC(C)C)C(=O)N2C[C@H](O)C[C@H]2C(=O)N[C@@H](Cc2c[nH]c3ccccc23)C(=O)N[C@@H](CCN)C(=O)N[C@@H](Cc2cn(CC(=O)O)c3ccccc23)C(=O)N1C [Example 10556] ([Phe(4-Cl)][Pip]DP[Dap]L[Hyp]W[Dab][Trp(1-CH2COOH)][NMeNle][NMeNle]L[Aad]-NH2; lactam N-14) | 1 to 9.9 nM
